Assay results: ChEMBL document CHEMBL3352660, “Design, synthesis and pharmacological evaluation of novel polycyclic heteroarene ethers as PDE10A inhibitors: part II” (Bioorg Med Chem Lett, 2014)
Calls of active or inactive are those of the source. The calls are words filed in the database; no cut-off is given here.

How the values were obtained:
Rattus norvegicus [1] = test: Antipsychotic activity in Sprague-Dawley rat psychosis model assessed as reversal of MK-801-induced stereotypy at 10 mg/kg, po administered 2 hrs prior to MK-801 challenge measured every 5 mins for 1 hr starting 15 mins post MK-801 injection relative to vehicle-treated control; type: functional
Rattus norvegicus [2] = test: Antipsychotic activity in Sprague-Dawley rat psychosis model assessed as reversal of MK-801-induced locomotion at 3 mg/kg, po administered 2 hrs prior to MK-801 challenge measured every 5 mins for 1 hr starting 15 mins post MK-801 injection relative to vehicle-treated control; type: functional
[3] = biological target: cGMP-dependent 3',5'-cyclic phosphodiesterase (Homo sapiens) (UniProt O00408); test: Inhibition of human recombinant PDE2A using cAMP as substrate at 10 uM after 30 mins by HTRF method
[4] = Metabolic stability in human liver microsomes incubated for 10 mins prior to NADPH addition measured after 60 mins by LC/MS/MS analysis; type: ADME; settings: read-out: Stability
[5] = Plasma clearance in iv dosed Sprague-Dawley rat; type: ADME, organism-based
[6] = biological target: Dual 3',5'-cyclic-AMP and -GMP phosphodiesterase 11A (Homo sapiens) (UniProt Q9HCR9); test: Inhibition of human recombinant PDE11A using [3H]-cAMP as substrate at 1 uM after 30 mins by two-step radiometric assay
Rattus norvegicus [7] = test: Antipsychotic activity in Sprague-Dawley rat psychosis model assessed as reversal of MK-801-induced stereotypy at 1 mg/kg, po administered 2 hrs prior to MK-801 challenge measured every 5 mins for 1 hr starting 15 mins post MK-801 injection relative to vehicle-treated control; type: functional
Rattus norvegicus [8] = test: Antipsychotic activity in Sprague-Dawley rat psychosis model assessed as reversal of MK-801-induced ataxia at 3 mg/kg, po administered 2 hrs prior to MK-801 challenge measured every 5 mins for 1 hr starting 15 mins post MK-801 injection relative to vehicle-treated control; type: functional
[9] = Tmax in Sprague-Dawley rat at 10 mg/kg, po; type: ADME, organism-based; design: dose 10 mg/kg, route oral; settings: in vivo
[10] = biological target: T1, cAMP and cAMP-inhibited cGMP 3',5'-cyclic phosphodiesterase 10A (Rattus norvegicus, UniProt Q9QYJ6); test: Inhibition of rat recombinant GST-tagged PDE10A using [3H]-cAMP as substrate by scintillation proximity assay
T1 sequence (Q9QYJ6 whole entry): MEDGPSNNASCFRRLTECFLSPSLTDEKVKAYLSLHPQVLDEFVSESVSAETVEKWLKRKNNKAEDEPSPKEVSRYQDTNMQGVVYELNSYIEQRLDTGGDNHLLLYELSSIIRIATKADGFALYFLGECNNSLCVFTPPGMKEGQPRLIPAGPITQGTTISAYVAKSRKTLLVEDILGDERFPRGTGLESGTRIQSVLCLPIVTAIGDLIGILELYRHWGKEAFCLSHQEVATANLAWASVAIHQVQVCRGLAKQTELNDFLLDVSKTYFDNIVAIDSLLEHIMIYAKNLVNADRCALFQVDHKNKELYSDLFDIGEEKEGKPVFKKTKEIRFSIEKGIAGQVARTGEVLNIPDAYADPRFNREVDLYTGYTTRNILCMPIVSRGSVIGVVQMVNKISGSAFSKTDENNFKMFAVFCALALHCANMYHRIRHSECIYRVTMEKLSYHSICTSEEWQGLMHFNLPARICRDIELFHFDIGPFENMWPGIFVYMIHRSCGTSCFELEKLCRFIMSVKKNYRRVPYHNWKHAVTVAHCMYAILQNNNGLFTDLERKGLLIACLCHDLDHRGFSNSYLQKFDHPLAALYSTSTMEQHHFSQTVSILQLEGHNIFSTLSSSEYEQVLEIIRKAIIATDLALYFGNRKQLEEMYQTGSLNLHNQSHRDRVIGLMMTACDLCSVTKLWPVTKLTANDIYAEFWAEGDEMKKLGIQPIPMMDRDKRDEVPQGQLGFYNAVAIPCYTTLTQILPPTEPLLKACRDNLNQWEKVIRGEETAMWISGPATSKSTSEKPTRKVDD

Rattus norvegicus [11] = test: Antipsychotic activity in Sprague-Dawley rat conditioned avoidance response model assessed as avoidance of shock at 1 mg/kg, po measured after 2 hrs relative to vehicle-treated control; type: functional
[12] = biological target: 3',5'-cyclic-AMP phosphodiesterase 4D (Homo sapiens) (UniProt Q08499); test: Inhibition of human recombinant PDE4D using [3H]-cAMP as substrate at 1 uM after 30 mins by two-step radiometric assay
[13] = AUC (0 to t) in Sprague-Dawley rat at 10 mg/kg, po; type: ADME, organism-based; design: dose 10 mg/kg, route oral; settings: plasma
[14] = Half life in Swiss albino mouse at 10 mg/kg, po; type: ADME, organism-based; design: dose 10 mg/kg, route oral; settings: in vivo
[15] = Plasma clearance in iv dosed Swiss albino mouse; type: ADME, organism-based
[16] = Oral bioavailability in Swiss albino mouse at 10 mg/kg […]; type: ADME, organism-based; settings: in vivo
Rattus norvegicus [17] = test: Antipsychotic activity in Sprague-Dawley rat psychosis model assessed as reversal of MK-801-induced locomotion at 10 mg/kg, po administered 2 hrs prior to MK-801 challenge measured every 5 mins for 1 hr starting 15 mins post MK-801 injection relative to vehicle-treated control; type: functional
[18] = biological target: 3',5'-cyclic-AMP phosphodiesterase 4D (Homo sapiens) (UniProt Q08499); test: Inhibition of human recombinant PDE4D using [3H]-cAMP as substrate at 10 uM after 30 mins by two-step radiometric assay
Rattus norvegicus [19] = test: Antipsychotic activity in Sprague-Dawley rat psychosis model assessed as reversal of MK-801-induced ataxia at 1 mg/kg, po administered 2 hrs prior to MK-801 challenge measured every 5 mins for 1 hr starting 15 mins post MK-801 injection relative to vehicle-treated control; type: functional
Rattus norvegicus [20] = test: Antipsychotic activity in Sprague-Dawley rat prepulse inhibition deficit model assessed as reversal of MK-801-induced effect at 1 mg/kg, po administered 110 mins prior to MK-801 challenge relative to vehicle-treated control; type: functional; design: scale not given: the % may be the effect or the level left
Rattus norvegicus [21] = test: Antipsychotic activity in Sprague-Dawley rat conditioned avoidance response model assessed as response failure at 10 mg/kg, po measured after 2 hrs relative to vehicle-treated control; type: functional, organism-based; design: dose 10 mg/kg
[22] = Cmax in Swiss albino mouse at 10 mg/kg, po; type: ADME, organism-based; design: dose 10 mg/kg, route oral; settings: in vivo
[23] = biological target: High affinity 3',5'-cyclic-AMP phosphodiesterase 7A (Homo sapiens) (UniProt Q13946); test: Inhibition of human recombinant PDE7A using [3H]-cAMP as substrate at 10 uM after 30 mins by two-step radiometric assay
[24] = biological target: cGMP-inhibited 3',5'-cyclic phosphodiesterase 3A (Homo sapiens) (UniProt Q14432); test: Inhibition of human recombinant PDE3A using cAMP as substrate at 10 uM after 30 mins by HTRF method
[25] = Metabolic stability in Beagle dog liver microsomes incubated for 10 mins prior to NADPH addition measured after 60 mins by LC/MS/MS analysis; type: ADME, Canis lupus familiaris; settings: read-out: Stability
[26] = Half life in Sprague-Dawley rat at 10 mg/kg, po; type: ADME, organism-based; design: dose 10 mg/kg, route oral; settings: in vivo
[27] = biological target: cAMP and cAMP-inhibited cGMP 3',5'-cyclic phosphodiesterase 10A (Homo sapiens, UniProt Q9Y233); test: Inhibition of human recombinant GST-tagged PDE10A using [3H]-cAMP as substrate after 30 mins by scintillation proximity assay
Chain of cAMP and cAMP-inhibited cGMP 3',5'-cyclic phosphodiesterase 10A (Homo sapiens, UniProt Q9Y233) (Q9Y233 whole entry): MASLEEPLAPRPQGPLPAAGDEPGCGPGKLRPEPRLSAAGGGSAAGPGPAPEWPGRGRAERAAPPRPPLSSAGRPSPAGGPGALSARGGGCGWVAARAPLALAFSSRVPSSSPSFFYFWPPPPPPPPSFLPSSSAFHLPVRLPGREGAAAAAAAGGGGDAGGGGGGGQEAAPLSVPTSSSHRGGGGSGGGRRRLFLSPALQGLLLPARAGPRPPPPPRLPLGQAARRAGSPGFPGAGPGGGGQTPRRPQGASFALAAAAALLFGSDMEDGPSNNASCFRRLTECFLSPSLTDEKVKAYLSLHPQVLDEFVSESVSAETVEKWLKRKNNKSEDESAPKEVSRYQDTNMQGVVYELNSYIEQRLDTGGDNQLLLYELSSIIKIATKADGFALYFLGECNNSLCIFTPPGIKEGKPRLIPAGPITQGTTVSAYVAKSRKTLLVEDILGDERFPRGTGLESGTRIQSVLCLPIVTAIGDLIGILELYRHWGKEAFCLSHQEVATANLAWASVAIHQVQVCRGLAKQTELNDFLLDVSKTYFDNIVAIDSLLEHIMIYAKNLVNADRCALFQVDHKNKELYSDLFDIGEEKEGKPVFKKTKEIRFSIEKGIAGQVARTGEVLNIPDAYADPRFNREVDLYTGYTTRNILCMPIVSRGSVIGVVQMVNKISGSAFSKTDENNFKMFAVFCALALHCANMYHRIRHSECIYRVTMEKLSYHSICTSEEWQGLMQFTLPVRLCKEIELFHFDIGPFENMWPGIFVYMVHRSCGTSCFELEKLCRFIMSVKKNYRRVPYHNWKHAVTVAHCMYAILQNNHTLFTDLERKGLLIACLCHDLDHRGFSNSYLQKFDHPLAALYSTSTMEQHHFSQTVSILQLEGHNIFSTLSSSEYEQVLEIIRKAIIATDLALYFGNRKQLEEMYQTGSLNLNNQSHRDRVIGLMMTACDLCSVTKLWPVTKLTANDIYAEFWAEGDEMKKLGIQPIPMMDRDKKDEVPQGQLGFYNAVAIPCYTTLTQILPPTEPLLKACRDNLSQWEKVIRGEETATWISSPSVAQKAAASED

Chain of 3',5'-cyclic-AMP phosphodiesterase 4D (Homo sapiens) (Q08499 whole entry): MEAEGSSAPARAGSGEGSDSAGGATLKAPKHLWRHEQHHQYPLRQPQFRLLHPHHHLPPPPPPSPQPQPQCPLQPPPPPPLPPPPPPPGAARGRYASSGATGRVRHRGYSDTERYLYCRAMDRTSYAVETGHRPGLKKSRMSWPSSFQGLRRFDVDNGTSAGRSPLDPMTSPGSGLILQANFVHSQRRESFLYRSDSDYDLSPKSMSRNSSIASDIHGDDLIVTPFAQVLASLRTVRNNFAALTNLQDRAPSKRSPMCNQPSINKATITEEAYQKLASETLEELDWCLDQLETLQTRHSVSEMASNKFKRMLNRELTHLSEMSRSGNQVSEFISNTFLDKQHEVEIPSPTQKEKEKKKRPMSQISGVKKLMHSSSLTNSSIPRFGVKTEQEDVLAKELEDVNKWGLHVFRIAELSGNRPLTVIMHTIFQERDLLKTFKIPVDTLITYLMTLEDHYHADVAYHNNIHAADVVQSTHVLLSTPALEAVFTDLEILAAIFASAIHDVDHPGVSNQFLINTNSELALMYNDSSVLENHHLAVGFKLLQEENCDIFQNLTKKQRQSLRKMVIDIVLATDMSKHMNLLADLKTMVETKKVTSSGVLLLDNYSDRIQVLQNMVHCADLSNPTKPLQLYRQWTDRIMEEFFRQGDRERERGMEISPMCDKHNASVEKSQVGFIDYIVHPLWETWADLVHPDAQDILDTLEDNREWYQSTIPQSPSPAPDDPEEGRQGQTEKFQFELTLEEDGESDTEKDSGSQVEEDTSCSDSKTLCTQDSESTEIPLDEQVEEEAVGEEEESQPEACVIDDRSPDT
Chain of cGMP-inhibited 3',5'-cyclic phosphodiesterase 3A (Homo sapiens) (Q14432 whole entry): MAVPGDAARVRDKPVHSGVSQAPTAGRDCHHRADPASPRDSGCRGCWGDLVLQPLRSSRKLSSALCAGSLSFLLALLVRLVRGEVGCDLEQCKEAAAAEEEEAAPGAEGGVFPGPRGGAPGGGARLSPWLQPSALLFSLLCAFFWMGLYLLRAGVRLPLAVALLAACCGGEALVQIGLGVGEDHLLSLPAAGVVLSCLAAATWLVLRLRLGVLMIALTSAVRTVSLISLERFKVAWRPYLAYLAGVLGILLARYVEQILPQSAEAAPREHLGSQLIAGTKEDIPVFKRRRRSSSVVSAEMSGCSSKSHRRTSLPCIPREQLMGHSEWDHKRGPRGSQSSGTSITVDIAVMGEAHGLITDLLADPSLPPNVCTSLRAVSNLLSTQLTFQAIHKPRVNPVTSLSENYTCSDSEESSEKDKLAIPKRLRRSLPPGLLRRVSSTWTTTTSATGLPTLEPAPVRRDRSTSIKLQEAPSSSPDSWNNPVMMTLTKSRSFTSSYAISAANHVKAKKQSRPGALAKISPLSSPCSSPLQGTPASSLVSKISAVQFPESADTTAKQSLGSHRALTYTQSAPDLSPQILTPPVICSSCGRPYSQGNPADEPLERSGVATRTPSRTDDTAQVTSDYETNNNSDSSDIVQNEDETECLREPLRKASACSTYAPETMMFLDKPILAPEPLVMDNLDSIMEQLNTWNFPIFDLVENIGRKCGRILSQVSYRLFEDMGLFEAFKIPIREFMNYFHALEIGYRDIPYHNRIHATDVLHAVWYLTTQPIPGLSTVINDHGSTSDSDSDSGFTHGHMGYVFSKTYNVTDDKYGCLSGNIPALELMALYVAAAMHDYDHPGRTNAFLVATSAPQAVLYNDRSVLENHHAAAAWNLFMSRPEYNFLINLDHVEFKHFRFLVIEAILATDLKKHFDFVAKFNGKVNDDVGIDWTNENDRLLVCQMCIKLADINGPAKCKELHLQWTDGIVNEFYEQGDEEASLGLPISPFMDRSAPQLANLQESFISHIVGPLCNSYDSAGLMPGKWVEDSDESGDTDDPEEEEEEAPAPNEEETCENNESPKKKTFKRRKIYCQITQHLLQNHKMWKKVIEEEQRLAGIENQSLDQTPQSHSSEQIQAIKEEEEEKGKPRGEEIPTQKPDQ
Chain of High affinity 3',5'-cyclic-AMP phosphodiesterase 7A (Homo sapiens) (Q13946 whole entry): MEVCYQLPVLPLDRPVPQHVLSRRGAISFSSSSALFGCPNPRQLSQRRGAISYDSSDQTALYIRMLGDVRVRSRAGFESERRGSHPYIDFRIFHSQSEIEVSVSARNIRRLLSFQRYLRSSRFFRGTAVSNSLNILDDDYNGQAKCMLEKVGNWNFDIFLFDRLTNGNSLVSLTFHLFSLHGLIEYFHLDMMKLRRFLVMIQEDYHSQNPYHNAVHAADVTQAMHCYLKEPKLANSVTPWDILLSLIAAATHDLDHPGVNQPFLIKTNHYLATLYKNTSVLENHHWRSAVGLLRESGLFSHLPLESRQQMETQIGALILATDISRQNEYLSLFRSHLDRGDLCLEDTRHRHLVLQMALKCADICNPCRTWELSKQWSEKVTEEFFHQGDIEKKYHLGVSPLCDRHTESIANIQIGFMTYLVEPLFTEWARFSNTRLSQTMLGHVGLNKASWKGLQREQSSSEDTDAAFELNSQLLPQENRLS
Chain of cGMP-dependent 3',5'-cyclic phosphodiesterase (Homo sapiens) (O00408 whole entry): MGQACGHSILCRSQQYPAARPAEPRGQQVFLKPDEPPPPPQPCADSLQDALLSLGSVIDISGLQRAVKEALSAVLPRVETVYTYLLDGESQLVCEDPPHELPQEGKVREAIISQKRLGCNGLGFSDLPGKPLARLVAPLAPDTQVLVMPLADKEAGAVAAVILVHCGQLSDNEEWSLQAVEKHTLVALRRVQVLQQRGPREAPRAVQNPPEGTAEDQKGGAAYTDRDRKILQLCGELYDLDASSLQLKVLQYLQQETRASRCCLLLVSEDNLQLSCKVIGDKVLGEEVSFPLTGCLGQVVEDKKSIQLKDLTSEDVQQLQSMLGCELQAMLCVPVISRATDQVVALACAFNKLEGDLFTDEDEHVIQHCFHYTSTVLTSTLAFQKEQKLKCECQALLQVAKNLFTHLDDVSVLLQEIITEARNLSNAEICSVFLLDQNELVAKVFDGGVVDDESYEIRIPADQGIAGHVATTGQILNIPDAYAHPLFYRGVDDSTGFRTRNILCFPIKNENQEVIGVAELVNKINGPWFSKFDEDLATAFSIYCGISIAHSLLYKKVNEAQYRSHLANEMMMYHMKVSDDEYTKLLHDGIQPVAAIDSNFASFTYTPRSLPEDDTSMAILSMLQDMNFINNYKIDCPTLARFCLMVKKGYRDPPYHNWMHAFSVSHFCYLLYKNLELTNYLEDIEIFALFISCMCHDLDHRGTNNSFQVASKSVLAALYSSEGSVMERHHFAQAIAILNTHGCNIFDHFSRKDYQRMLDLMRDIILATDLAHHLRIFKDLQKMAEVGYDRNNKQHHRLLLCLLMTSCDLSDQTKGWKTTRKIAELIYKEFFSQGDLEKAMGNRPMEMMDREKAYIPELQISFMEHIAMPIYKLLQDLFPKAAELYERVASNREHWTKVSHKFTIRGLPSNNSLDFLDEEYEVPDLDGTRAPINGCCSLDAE

**Q.** Which results are given for Cn1cc(-c2ccc(Oc3nccnc3-c3ccncc3)cc2)c2ncccc21?
**A.** Activity (Rattus norvegicus [1]): 99%; Activity (Rattus norvegicus [2]): 74%; inhibition [3]: 42.4%; remaining at 1 h [4]: 77.4%; clearance [5]: 1.6 mL/min/kg; inhibition [6]: 4.9%; Activity (Rattus norvegicus [7]): 95%; Activity (Rattus norvegicus [8]): 59%; Tmax [9]: 2 h; IC50 [10]: 16.1 nM; Activity (Rattus norvegicus [11]): 17%; inhibition [12]: 0%; AUC(0-t) [13]: 410 µg·h/mL; half-life [14]: 10.4 h; clearance [15]: 68.4 mL/min/kg; bioavailability [16]: 8%; Activity (Rattus norvegicus [17]): 90%; inhibition [18]: 33.8%; Activity (Rattus norvegicus [19]): 59%; Activity (Rattus norvegicus [20]): 43%; Activity (Rattus norvegicus [21]): Active; Cmax [22]: 5490 ng/mL; inhibition [23]: 44.5%; inhibition [24]: 6.3%; remaining at 1 h [25]: 65.8%; half-life [26]: 4.4 h; IC50 [27]: 6.3 nM
